Reference: patent US11998539B2, “Substituted aminoquinolones as DGKalpha inhibitors for immune activation” (Bayer Aktiengesellschaft, priority 2019, dated 2024)

The molecules below were run against DGKα (Homo sapiens (Human), UniProt P23743) (assay: Human DGKα kinase activity inhibition assay (ADP-Glo)). Conditions: recombinant full-length human DGKα, 55 μM ATP, 7 μM 1,2-dioleoyl-sn-glycerol, read-out: IC50 values of examples in in vitro human DGKa kinase activity inhibition assays.
Sequence of DGKα (P23743 other isoform, or with tags, fused parts or gaps): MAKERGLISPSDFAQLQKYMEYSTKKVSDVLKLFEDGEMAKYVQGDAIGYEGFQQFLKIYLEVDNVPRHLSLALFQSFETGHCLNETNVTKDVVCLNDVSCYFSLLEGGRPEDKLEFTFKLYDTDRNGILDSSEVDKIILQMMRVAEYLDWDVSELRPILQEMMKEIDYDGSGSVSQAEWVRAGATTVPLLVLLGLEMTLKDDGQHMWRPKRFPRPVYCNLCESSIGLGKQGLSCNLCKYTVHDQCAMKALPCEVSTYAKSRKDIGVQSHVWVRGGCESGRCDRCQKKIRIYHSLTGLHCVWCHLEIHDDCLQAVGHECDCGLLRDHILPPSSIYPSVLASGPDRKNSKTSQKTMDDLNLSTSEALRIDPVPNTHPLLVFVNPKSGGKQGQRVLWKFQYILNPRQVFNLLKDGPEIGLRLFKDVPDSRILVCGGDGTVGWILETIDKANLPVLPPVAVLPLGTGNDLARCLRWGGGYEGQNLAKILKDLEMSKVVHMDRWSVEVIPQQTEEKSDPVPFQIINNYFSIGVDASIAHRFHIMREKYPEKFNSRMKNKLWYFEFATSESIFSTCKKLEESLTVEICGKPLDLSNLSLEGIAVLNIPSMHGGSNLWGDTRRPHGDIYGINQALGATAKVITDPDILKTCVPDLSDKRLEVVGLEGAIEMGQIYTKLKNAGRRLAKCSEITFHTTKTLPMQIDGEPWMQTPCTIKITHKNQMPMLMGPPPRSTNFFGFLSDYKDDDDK
Type: biochemical
Summary of the method: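 Activity was measured as ADP production, detected by luciferase luminescence after removal of unused ATP. The enzyme was baculovirus-expressed full-length human DGKα with a C-terminal FLAG tag. The substrate was 1,2-dioleoyl-sn-glycerol in detergent micelles, and compounds came from 100× DMSO solutions.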
Molecule Cn1c(=O)c(C#N)c(N2CCC(c3ccn(-c4ccc(Cl)cc4)n3)CC2)c2ccccc21 [Example 369, 4-{4-[1-(4-chlorophenyl)-1H-pyrazol-3-yl]piperidin-1-yl}-1-methyl-2-oxo-1,2-dihydroquinoline-3-carbonitrile] has an IC50 of 14 nM.
Work on Cn1c(=O)c(C#N)c(N2CCC(c3nc(-c4cccnc4)no3)CC2)c2ccccc21 [Example 370, 1-methyl-2-oxo-4-{4-[3-(pyridin-3-yl)-1,2,4-oxadiazol-5-yl]piperidin-1-yl}-1,2-dihydroquinoline-3-carbonitrile] yielded an IC50 of 158 nM.
Molecule Cc1ccc2cc(C3CCN(c4c(C#N)c(=O)n(C)c5ccccc45)CC3)ccc2n1 [Example 371, 1-methyl-4-[4-(2-methylquinolin-6-yl)piperidin-1-yl]-2-oxo-1,2-dihydroquinoline-3-carbonitrile] has an IC50 of 14 nM.
With COc1cccc(-c2csc(C3CCN(c4c(C#N)c(=O)n(C)c5ccccc45)CC3)n2)c1 [Example 372, 4-{4-[4-(3-methoxyphenyl)-1,3-thiazol-2-yl]piperidin-1-yl}-1-methyl-2-oxo-1,2-dihydroquinoline-3-carbonitrile] the IC50 was 14 nM.
Work on COc1ccccc1-c1csc(C2CCN(c3c(C#N)c(=O)n(C)c4ccccc34)CC2)n1 [Example 373, 4-{4-[4-(2-methoxyphenyl)-1,3-thiazol-2-yl]piperidin-1-yl}-1-methyl-2-oxo-1,2-dihydroquinoline-3-carbonitrile] yielded an IC50 of 9.9 nM.
Cc1ccc(-c2csc(C3CCN(c4c(C#N)c(=O)n(C)c5ccccc45)CC3)n2)cc1 [Example 374, 1-methyl-4-{4-[4-(4-methylphenyl)-1,3-thiazol-2-yl]piperidin-1-yl}-2-oxo-1,2-dihydroquinoline-3-carbonitrile] gave an IC50 of 34 nM.
Molecule Cc1nc2ccc(C3CCN(c4c(C#N)c(=O)n(C)c5ccccc45)CC3)cc2o1 [Example 376, 1-methyl-4-[4-(2-methyl-1,3-benzoxazol-6-yl)piperidin-1-yl]-2-oxo-1,2-dihydroquinoline-3-carbonitrile] has an IC50 of 14 nM.
Work on Cc1nc2ccc(C3CCN(c4c(C#N)c(=O)n(C)c5ccccc45)CC3)cc2s1 [Example 377, 1-methyl-4-[4-(2-methyl-1,3-benzothiazol-6-yl)piperidin-1-yl]-2-oxo-1,2-dihydroquinoline-3-carbonitrile] yielded an IC50 of 4.8 nM.
Cn1c(=O)c(C#N)c(N2CCC(c3ccc4cc(C(F)F)cnc4c3)CC2)c2ccccc21 [Example 378, 4-{4-[3-(difluoromethyl)quinolin-7-yl]piperidin-1-yl}-1-methyl-2-oxo-1,2-dihydroquinoline-3-carbonitrile] gave an IC50 of 23 nM.
Cc1ccc2oc(C3CCN(c4c(C#N)c(=O)n(C)c5cc(OC6CCOCC6)ccc45)CC3)nc2c1 [Example 382, 1-methyl-4-[4-(5-methyl-1,3-benzoxazol-2-yl)piperidin-1-yl]-7-[(oxan-4-yl)oxy]-2-oxo-1,2-dihydroquinoline-3-carbonitrile] showed an IC50 of 13 nM.
COCCOc1ccc2c(N3CCC(c4nc5cc(C)ccc5o4)CC3)c(C#N)c(=O)n(C)c2c1 [Example 383, 7-(2-methoxyethoxy)-1-methyl-4-[4-(5-methyl-1,3-benzoxazol-2-yl)piperidin-1-yl]-2-oxo-1,2-dihydroquinoline-3-carbonitrile] gave an IC50 of 5.1 nM.
Cc1ccc2oc(C3CCN(c4c(C#N)c(=O)n(C)c5cc(OCC6CO6)ccc45)CC3)nc2c1 (centres unmarked) [Example 384, 1-methyl-4-[4-(5-methyl-1,3-benzoxazol-2-yl)piperidin-1-yl]-7-{[oxiran-2-yl]methoxy}-2-oxo-1,2-dihydroquinoline-3-carbonitrile] gave an IC50 of 1.8 nM.
For Cc1ccc2oc(C3CCN(c4c(C#N)c(=O)n(C)c5cc(OC6COC6)ccc45)CC3)nc2c1 [Example 385, 1-methyl-4-[4-(5-methyl-1,3-benzoxazol-2-yl)piperidin-1-yl]-7-[(oxetan-3-yl)oxy]-2-oxo-1,2-dihydroquinoline-3-carbonitrile], the IC50 was 0.9 nM.
With COc1ccc2oc(C3CCN(c4c(C#N)c(=O)n(C)c5ccccc45)CC3)nc2c1 [Example 386, 4-[4-(5-methoxy-1,3-benzoxazol-2-yl)piperidin-1-yl]-1-methyl-2-oxo-1,2-dihydroquinoline-3-carbonitrile] the IC50 was 9.4 nM.
In the case of Cn1c(=O)c(C#N)c(N2CCC(c3nc4cc(OCC5CCCO5)ccc4o3)CC2)c2ccccc21 (centres unmarked) [Example 387, 1-methyl-2-oxo-4-(4-{5-[(oxolan-2-yl)methoxy]-1,3-benzoxazol-2-yl}piperidin-1-yl)-1,2-dihydroquinoline-3-carbonitrile], the IC50 is reported as 8.9 nM.
Work on Cn1c(=O)c(C#N)c(N2CCC(c3nc4ccc(C5COC5)cc4o3)CC2)c2ccccc21 [Example 388, 1-methyl-4-{4-[6-(oxetan-3-yl)-1,3-benzoxazol-2-yl]piperidin-1-yl}-2-oxo-1,2-dihydroquinoline-3-carbonitrile] yielded an IC50 of 33 nM.
For Cn1c(=O)c(C#N)c(N2CCC(F)(c3nc4ccccc4o3)CC2)c2ccccc21 [Example 389, 4-[4-(1,3-benzoxazol-2-yl)-4-fluoropiperidin-1-yl]-1-methyl-2-oxo-1,2-dihydroquinoline-3-carbonitrile], the IC50 was 3.1 nM.
Molecule COC1(c2nc3ccccc3o2)CCN(c2c(C#N)c(=O)n(C)c3ccccc23)CC1 [Example 390, 4-[4-(1,3-benzoxazol-2-yl)-4-methoxypiperidin-1-yl]-1-methyl-2-oxo-1,2-dihydroquinoline-3-carbonitrile] has an IC50 of 3.5 nM.
COCc1ccc2oc(C3(C)CCN(c4c(C#N)c(=O)n(C)c5ccccc45)CC3)nc2c1 [Example 391, 4-{4-[5-(methoxymethyl)-1,3-benzoxazol-2-yl]-4-methylpiperidin-1-yl}-1-methyl-2-oxo-1,2-dihydroquinoline-3-carbonitrile] gave an IC50 of 8.3 nM.
For COCc1ccc2nc(C3(C)CCN(c4c(C#N)c(=O)n(C)c5ccccc45)CC3)oc2c1 [Example 392, 4-{4-[6-(methoxymethyl)-1,3-benzoxazol-2-yl]-4-methylpiperidin-1-yl}-1-methyl-2-oxo-1,2-dihydroquinoline-3-carbonitrile], the IC50 was 6.7 nM.
Molecule COc1ccc2oc(C3(F)CCN(c4c(C#N)c(=O)n(C)c5ccccc45)CC3)nc2c1 [Example 393, 4-[4-fluoro-4-(5-methoxy-1,3-benzoxazol-2-yl)piperidin-1-yl]-1-methyl-2-oxo-1,2-dihydroquinoline-3-carbonitrile] has an IC50 of 106 nM.
In the case of Cn1c(=O)c(C#N)c(N2CCC(c3nc4ccc(C5CC5)cc4o3)CC2)c2ccccc21 [Example 395, 4-[4-(6-cyclopropyl-1,3-benzoxazol-2-yl)piperidin-1-yl]-1-methyl-2-oxo-1,2-dihydroquinoline-3-carbonitrile], the IC50 is reported as 2.4 nM.
Cc1ccc2oc(C3CCN(c4c(C#N)c(=O)n(C)c5ccc(Br)cc45)CC3)nc2c1 [Example 396, 6-bromo-1-methyl-4-[4-(5-methyl-1,3-benzoxazol-2-yl)piperidin-1-yl]-2-oxo-1,2-dihydroquinoline-3-carbonitrile] gave an IC50 of 0.9 nM.
Molecule Cc1ccc2oc(C3CCN(c4c(C#N)c(=O)n(C)c5c(Br)cccc45)CC3)nc2c1 [Example 397, 8-bromo-1-methyl-4-[4-(5-methyl-1,3-benzoxazol-2-yl)piperidin-1-yl]-2-oxo-1,2-dihydroquinoline-3-carbonitrile] has an IC50 of 399 nM.
Cc1ccc2oc(C3CCN(c4c(C#N)c(=O)n(C)c5cc(N(C)C6COC6)ccc45)CC3)nc2c1 [Example 398, 1-methyl-4-[4-(5-methyl-1,3-benzoxazol-2-yl)piperidin-1-yl]-7-[methyl(oxetan-3-yl)amino]-2-oxo-1,2-dihydroquinoline-3-carbonitrile] was tested, and the IC50 was 1.7 nM.
In the case of Cc1ccc2oc(C3CCN(c4c(C#N)c(=O)n(C)c5cc(N(C)CCO)ccc45)CC3)nc2c1 [Example 399, 7-[(2-hydroxyethyl)(methyl)amino]-1-methyl-4-[4-(5-methyl-1,3-benzoxazol-2-yl)piperidin-1-yl]-2-oxo-1,2-dihydroquinoline-3-carbonitrile], the IC50 is reported as 0.5 nM.
Cc1ccc2oc(C3CCN(c4c(C#N)c(=O)n(C)c5cc(N(C)CC#N)ccc45)CC3)nc2c1 [Example 401, 7-[(cyanomethyl)(methyl)amino]-1-methyl-4-[4-(5-methyl-1,3-benzoxazol-2-yl)piperidin-1-yl]-2-oxo-1,2-dihydroquinoline-3-carbonitrile] gave an IC50 of 0.8 nM.
With COc1ccc2c(c1)c(N1CCC(c3nc4cc(C)ccc4o3)CC1)c(C#N)c(=O)n2C [Example 402, 6-methoxy-1-methyl-4-[4-(5-methyl-1,3-benzoxazol-2-yl)piperidin-1-yl]-2-oxo-1,2-dihydroquinoline-3-carbonitrile] the IC50 was 16 nM.
With Cc1ccc2oc(C3CCN(c4c(C#N)c(=O)n(C)c5ccc(C#N)cc45)CC3)nc2c1 [Example 403, 1-methyl-4-[4-(5-methyl-1,3-benzoxazol-2-yl)piperidin-1-yl]-2-oxo-1,2-dihydroquinoline-3,6-dicarbonitrile] the IC50 was 2 nM.
Cc1ccc2oc(C3CCN(c4c(C#N)c(=O)n(C)c5ccc(C(N)=O)cc45)CC3)nc2c1 [Example 404, 3-cyano-1-methyl-4-[4-(5-methyl-1,3-benzoxazol-2-yl)piperidin-1-yl]-2-oxo-1,2-dihydroquinoline-6-carboxamide] was tested, and the IC50 was 5.3 nM.
With CCOc1ccc2c(c1)c(N1CCC(c3nc4cc(C)ccc4o3)CC1)c(C#N)c(=O)n2C [Example 405, 6-ethoxy-1-methyl-4-[4-(5-methyl-1,3-benzoxazol-2-yl)piperidin-1-yl]-2-oxo-1,2-dihydroquinoline-3-carbonitrile] the IC50 was 41 nM.
Cc1ccc2oc(C3CCN(c4c(C#N)c(=O)n(C)c5ccc(OCC(C)(F)F)cc45)CC3)nc2c1 [Example 406, 6-(2,2-difluoropropoxy)-1-methyl-4-[4-(5-methyl-1,3-benzoxazol-2-yl)piperidin-1-yl]-2-oxo-1,2-dihydroquinoline-3-carbonitrile] gave an IC50 of 36 nM.
